Test results: PubChem BioAssay (NCI)
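A five-concentration, 48-hour dose response in 96-well plates underlies each endpoint, interpolated linearly between surrounding concentrations. Here, GI50 denotes the concentration required for 50% inhibition of growth. TGI is the concentration that stops growth completely.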

Assays:
Experiment in all cases: NCI-60 cell line screen, 48 h
A549 NSCLC = tested on: A549 NSCLC
HOP-92 NSCLC = tested on: HOP-92 NSCLC
HT29 colon = tested on: HT29 colon
NCI-H23 lung = tested on: NCI-H23 lung
NCI-H460 lung = tested on: NCI-H460 lung
OVCAR-4 ovarian = tested on: OVCAR-4 ovarian
OVCAR-5 ovarian = tested on: OVCAR-5 ovarian
SF-539 CNS = tested on: SF-539 CNS
SN12C renal = tested on: SN12C renal
U251 CNS = tested on: U251 CNS

| SMILES | TGI (A549 NSCLC) | TGI (HOP-92 NSCLC) | TGI (HT29 colon) | TGI (NCI-H23 lung) | TGI (NCI-H460 lung) | TGI (OVCAR-4 ovarian) | TGI (OVCAR-5 ovarian) | TGI (SF-539 CNS) | TGI (SN12C renal) | TGI (U251 CNS) | GI50 (A549 NSCLC) | GI50 (HOP-92 NSCLC) | GI50 (HT29 colon) | GI50 (NCI-H23 lung) | GI50 (NCI-H460 lung) | GI50 (OVCAR-4 ovarian) | GI50 (OVCAR-5 ovarian) | GI50 (SF-539 CNS) | GI50 (SN12C renal) | GI50 (U251 CNS) |
| --- | --- | --- | --- | --- | --- | --- | --- | --- | --- | --- | --- | --- | --- | --- | --- | --- | --- | --- | --- | --- |
| CC(=O)NC1=C(C)C(=O)c2c(nc3n2CCC3O)C1=N (stereo unspecified) | > 100 µM | 15.3 µM | 33.5 µM | 29.7 µM | 51.3 µM | 14.6 µM | 36.6 µM | 13.9 µM | 19 µM | 26.9 µM | – | – | – | – | – | – | – | – | – | – |
| COC(=O)CNC(=O)[C@@H](OC)[C@@H]1Cc2cc3cc(OC4CC(OC5CC(O)C(O)C(C)O5)C(O)C(C)O4)c(C)c(O)c3c(O)c2C(=O)[C@H]1OC1CC(OC2CC(OC3CC(C)(O)C(O)C(C)O3)C(O)C(C)O2)C(O)C(C)O1 (stereo partly specified) | > 50 µM | 4.59 µM | > 50 µM | > 50 µM | > 50 µM | 5.4 µM | > 50 µM | 2.3 µM | > 50 µM | > 50 µM | 0.183 µM | 0.184 µM | 0.171 µM | 0.15 µM | 0.097 µM | 0.305 µM | 0.184 µM | 0.141 µM | 0.138 µM | 0.0806 µM |
| NC(C(=O)[O-])C(=O)[O-].NC1CCCCC1N.[Pt+4] | > 100 µM | – | > 100 µM | > 100 µM | 14.7 µM | > 100 µM | > 100 µM | > 100 µM | > 100 µM | > 100 µM | 2.63 µM | – | 2.65 µM | 13.9 µM | 2.29 µM | 11.3 µM | 2.64 µM | 5.36 µM | 4.5 µM | 4.63 µM |
| COc1cc(Nc2nc(N[C@H]3CCCC[C@@H]3N)nc3cc[nH]c(=O)c23)cc(OC)c1 | 16.1 µM | 9.13 µM | 3.69 µM | 15.8 µM | 4.21 µM | 20 µM | 14.6 µM | 2.64 µM | 16.9 µM | 5.31 µM | 2.57 µM | 1.06 µM | 0.391 µM | 1.48 µM | 1.28 µM | 5.93 µM | 1.11 µM | 0.454 µM | 2.43 µM | 1.46 µM |
| CN(CCOc1ccc(C#N)cc1)CCOc1ccc(C#N)cc1 | > 100 µM | – | > 100 µM | > 100 µM | > 100 µM | > 100 µM | > 100 µM | > 100 µM | > 100 µM | > 100 µM | > 100 µM | – | > 100 µM | 22.6 µM | > 100 µM | 67.5 µM | > 100 µM | > 100 µM | > 100 µM | 81.4 µM |
| Cn1ccnc1C(=O)/C=C/c1ccc(CC(=O)Nc2ccccc2)cc1 | > 25 µM | > 25 µM | 6.82 µM | 11.3 µM | 9.52 µM | > 25 µM | 14.7 µM | 7.52 µM | 14.3 µM | 5.27 µM | 6.6 µM | 6.63 µM | 2.4 µM | 3.24 µM | 2.32 µM | 4.12 µM | 4.19 µM | 2.43 µM | 3.84 µM | 1.57 µM |
| CCC(CC)n1c(C)nc2c1C(=O)c1ccccc1C2=O | > 100 µM | > 100 µM | > 100 µM | 54 µM | 49.7 µM | > 100 µM | – | > 100 µM | > 100 µM | > 100 µM | – | – | – | – | – | – | – | – | – | – |
| CN(C)c1ccc2cc(-c3ccccc3F)c(N)nc2c1 | 16.4 µM | 9.7 µM | 11 µM | 15.7 µM | 13.2 µM | 36 µM | 17.8 µM | 7.99 µM | 19.2 µM | 12.7 µM | 2.46 µM | 1.4 µM | 0.529 µM | 2.89 µM | 2.02 µM | 3.83 µM | 3.55 µM | 2.1 µM | 4.55 µM | 1.24 µM |
| CC(C)C1CC(O)O[C@@H]([C@@H](C)[C@H]2CC(=O)[C@@H]3[C@@H]4[C@@H](O)[C@H](O)[C@H]5[C@@H](O)[C@H](O)CC[C@]5(C)[C@H]4CC[C@]23C)C1 (stereo partly specified) | > 100 µM | 57.1 µM | > 100 µM | > 100 µM | > 100 µM | > 100 µM | – | > 100 µM | > 100 µM | > 100 µM | – | – | – | – | – | – | – | – | – | – |
| CC1=C(O)C(=O)C2C(=O)C1C(C)C2c1ccc(Cl)cc1 (stereo unspecified) | > 100 µM | > 100 µM | > 100 µM | > 100 µM | – | > 100 µM | > 100 µM | > 100 µM | – | > 100 µM | – | – | – | – | – | – | – | – | – | – |
| CCN(Cc1ccccc1OC)c1ccc(CO)c(Cl)c1 | 19.8 µM | 8.51 µM | 18 µM | 29.9 µM | 11.6 µM | 10.3 µM | 0.416 µM | 27.8 µM | 23.5 µM | 14.8 µM | 4.26 µM | 1.66 µM | 4.7 µM | 8.96 µM | 0.511 µM | 0.518 µM | 0.123 µM | 14.4 µM | 11.1 µM | 1.38 µM |
| CC12CCC(=O)C=C1CCC1C2C(O)CC2(C)C(c3csc(N)n3)CCC12 (stereo unspecified) | > 100 µM | > 100 µM | > 100 µM | > 100 µM | – | > 100 µM | > 100 µM | > 100 µM | > 100 µM | > 100 µM | – | – | – | – | – | – | – | – | – | – |
| NC(=O)N1N=C2c3ccccc3SC[C@H]2[C@@H]1c1ccccc1 | > 100 µM | – | 38 µM | > 100 µM | 40.8 µM | 73.4 µM | 60.2 µM | – | > 100 µM | 50.4 µM | – | – | – | – | – | – | – | – | – | – |
| COc1ccc(-c2cncn2-c2ccc(OC)cc2)cc1 | 49.3 µM | 84.8 µM | – | 48.3 µM | 48.4 µM | > 100 µM | 82.7 µM | 29.2 µM | 48.3 µM | > 100 µM | 20.6 µM | 23 µM | – | 19.1 µM | 15.6 µM | 28.9 µM | 25.2 µM | 11.2 µM | 18.1 µM | 25.3 µM |
| CC/C=C\C/C=C\C/C=C\CCCCCCCC(=O)OCC | > 100 µM | > 100 µM | > 100 µM | > 100 µM | – | > 100 µM | > 100 µM | > 100 µM | > 100 µM | > 100 µM | – | – | – | – | – | – | – | – | – | – |
| CC(=O)OC1c2ccccc2CCCCCCC12OCCO2 (stereo unspecified) | > 100 µM | – | > 100 µM | > 100 µM | > 100 µM | > 100 µM | > 100 µM | > 100 µM | > 100 µM | > 100 µM | – | – | – | – | – | – | – | – | – | – |
| c1cnc2[nH]cc(-c3csc(-c4cn(CCCCN5CCOCC5)c5ccccc45)n3)c2c1 | 4.13 µM | 3.13 µM | – | 4.49 µM | – | 5.69 µM | 3.45 µM | 3.13 µM | 10.8 µM | – | 1.89 µM | 1.43 µM | – | 2.04 µM | – | 2.06 µM | 1.82 µM | 1.71 µM | 2.98 µM | – |
| COc1ccc2c3c(c(=O)n(C)c2c1OC)C=CC(C)(C)O3 | > 100 µM | 76 µM | 72.7 µM | 84.9 µM | – | 41.3 µM | > 100 µM | > 100 µM | 54.8 µM | > 100 µM | – | – | – | – | – | – | – | – | – | – |
| O=NNc1nc(-c2cccnc2)nc2ccccc12 | > 100 µM | – | > 100 µM | > 100 µM | > 100 µM | > 100 µM | > 100 µM | > 100 µM | > 100 µM | > 100 µM | – | – | – | – | – | – | – | – | – | – |
| O=C(O)c1cc(=O)c2[nH]c3ccccc3c2s1 | > 100 µM | > 100 µM | – | > 100 µM | > 100 µM | > 100 µM | > 100 µM | – | > 100 µM | – | – | – | – | – | – | – | – | – | – | – |
| Cn1nc(-c2ccccc2)c(C(=O)/C=C/c2ccccc2)c(N2CCOCC2)c1=O | > 100 µM | 27.8 µM | 33 µM | 45.1 µM | 54.7 µM | – | – | 39.5 µM | 59.2 µM | 29.4 µM | – | – | – | – | – | – | – | – | – | – |
| COc1c(N2CCN(CN3C(=O)C(=Nc4ccc(S(=O)(=O)Nc5ncccn5)cc4)c4ccccc43)C(C)C2)c(F)cc2c(=O)c(C(=O)O)cn(C3CC3)c12 (stereo unspecified) | > 50 µM | – | > 50 µM | > 50 µM | > 50 µM | > 50 µM | > 50 µM | > 50 µM | > 50 µM | > 50 µM | > 50 µM | – | 22.3 µM | 19.8 µM | 22.4 µM | > 50 µM | > 50 µM | > 50 µM | > 50 µM | > 50 µM |
| CCCCCCCCCCCC[n+]1ccc(CCCCCCCCC)cc1 | – | 0.944 µM | – | 1.79 µM | – | – | – | – | – | – | – | 0.0968 µM | – | 0.39 µM | – | – | – | – | – | – |
| COC(=O)C1C2C=CC(C2)N1[C@@H](C)c1ccccc1 (stereo partly specified) | > 100 µM | > 100 µM | > 100 µM | > 100 µM | > 100 µM | – | > 100 µM | > 100 µM | > 100 µM | > 100 µM | – | – | – | – | – | – | – | – | – | – |
| O=C1CC[C@@H](S(=O)(=O)c2ccccc2)[C@@H](/C=C/c2ccccc2)O1 | > 100 µM | – | > 100 µM | > 100 µM | > 100 µM | > 100 µM | > 100 µM | > 100 µM | > 100 µM | > 100 µM | – | – | – | – | – | – | – | – | – | – |
| CC(=O)n1c2ccccc2c2nc3nc(Oc4ccc(C)cc4)c4ccccc4c3cc21 | > 100 µM | – | > 100 µM | 78.7 µM | > 100 µM | > 100 µM | > 100 µM | > 100 µM | > 100 µM | > 100 µM | – | – | – | – | – | – | – | – | – | – |
